Activity calls are given as the source filed them. The rule behind the calls is not given here.
Experiments:
in vitro [1] = conditions: rat, liver microsomes
Description: Metabolic stability in rat liver microsomes assessed as compound remaining measured after 30 mins

in vitro [2] = conditions: human, liver microsomes
Description: Metabolic stability in human liver microsomes assessed as compound remaining measured after 30 mins

physchem = conditions: 1-octanol/phosphate buffer, pH 7.4
[3] = Dissociation constant, pKa of the compound in DMSO solution by capillary electrophoresis; assay type: physicochemical
Rattus norvegicus [4] = test: Induction of dialysate dopamine level in male Wistar rat prefrontal cortex at 3 to 10 mg/kg, sc measured upto 120 mins after treatment by microdialysis study; assay type: functional, organism-based; conditions: dose 3-10 mg/kg
Rattus norvegicus [5] = test: Induction of dialysate dopamine level in male Wistar rat prefrontal cortex at 30 mg/kg, sc measured upto 120 mins after treatment by microdialysis study; assay type: functional, organism-based
Rattus norvegicus [6] = test: Induction of dialysate dopamine level in male Wistar rat prefrontal cortex at 3 mg/kg, sc measured upto 120 mins after treatment by microdialysis study; assay type: functional, organism-based
Rattus norvegicus [7] = test: Antipsychotic efficacy against MK-801-induced locomotor hyperactivity rat model assessed as reduction in locomotor activity at 30 mg/kg, sc pretreated for 45 mins before MK-801 challenge measured after 15 mins; assay type: functional, organism-based; conditions: time 60.0 min
Rattus norvegicus [8] = test: In vivo receptor occupancy at 5-HT2A receptor in sc dosed Wistar rat brain in presence of MDL-100907 non-radiolabeled tracer measured pretreated for 45 mins before MDL-100907 challenge measured after 15 mins; assay type: functional, organism-based; conditions: dose 0.1-30 mg/kg, time 60.0 min
Rattus norvegicus [9] = test: Induction of dialysate dopamine level in male Wistar rat prefrontal cortex at 10 mg/kg, sc measured upto 120 mins after treatment by microdialysis study; assay type: functional, organism-based

remaining at 0.5 h (in vitro [1])	remaining at 0.5 h (in vitro [2])	logD (physchem)	pKa [3]	SMILES	Activity (Rattus norvegicus [4])	Activity (Rattus norvegicus [5])	Activity (Rattus norvegicus [6])	Activity (Rattus norvegicus [7])	Activity (Rattus norvegicus [8])	Activity (Rattus norvegicus [9])
48%	48%	3	8.7	CC(C)COc1ccc(CNC(=O)N(Cc2ccc(F)cc2)[C@H]2CCN(C)CC23CC3)cc1						
64%	68%	2.5		CC(C)COc1ccc(CNC(=O)N(Cc2ccc(F)cn2)[C@H]2CCN(C)CC23CC3)cc1						
27%	34%	4	7.2	CC(C)COc1ccc(CNC(=O)N(Cc2ccc(F)cc2)[C@H]2CCN(C)C[C@H]2F)cc1						
92%	102%	1.2		CCCOc1ccc(CNC(=O)N(Cc2ccn(C)n2)C2CCN(C)CC2)cc1						
47%	88%	1.7		CC(C)COc1ccc(CNC(=O)N(Cc2ccn(C)n2)[C@H]2CCN(C)CC23CC3)cc1						
				Cc1cc2c(cc1Cl)N(C(=O)Nc1ccc(Oc3cccnc3C)nc1)CC2	Active					
90%	89%	2.8	8.4	CC(C)COc1ccc(CNC(=O)N(Cc2ccc(F)cc2)C2CCN(C)CC2)cc1 [PIMAVANSERIN]		Active	inactive	Active	Dose-Dependent Effect	inactive
6.1%	7.9%	4.9	6.2	CC(C)COc1ccc(CNC(=O)N(Cc2ccc(F)cc2)[C@H]2CCN(C)C[C@@H]2F)cc1						

— ChEMBL document CHEMBL5550221, “Dual 5-HT2A and 5-HT2C Receptor Inverse Agonist That Affords In Vivo Antipsychotic Efficacy with Minimal hERG Inhibition for the Treatment of Dementia-Related Psychosis” (J Med Chem, 2024)
